According to PMC1968196, “Effect of anthracycline analogs on photolabelling of p-glycoprotein by [125I]iodomycin and [3H]azidopine: relation to lipophilicity and inhibition of daunorubicin transport in multidrug resistant cells” (British Journal of Cancer, 1993):
Values joined by “and” are separate entries in the source; they are usually repeats but may differ in a detail not shown here. Identical values can stand only once. Like-named read-outs stand apart in the source and are kept apart here.

Key:
P-glycoprotein [1] = test: [3H]azidopine photolabelling of Pgp in EHR2/DNR+ cells; format: binding, mice; details: [3H]AZP 0.4 µM
Source text: (§1) Br. J. Cancer (1993), 67, 226 231 ? Macmillan Press Ltd., 1993 Effect of anthracycline analogs on photolabelling of p-glycoprotein by I'25 liodomycin and [3Hlazidopine: Relation to lipophilicity and inhibition of daunorubicin transport in multidrug resistant cells E. Frichel*, E.J.F. Demant2, M. Sehested3 & N.I. Nissen' 'Department of Medicine and Hematology, L 4042, Rigshospitalet-University Hospital, 9, Blegdamsvej, DK-2100 Copenhagen; 2Department of Biochemistry C, The Panum Institute, University of Copenhagen, DK-2200 Copenhagen; 3Department of Pathology, Sundby Hospital, DK-2300 Copenhagen, Denmark. […] We photoaffinity labelled P-glycoprotein in daunorubicin (DNR) resistant Ehrlich ascites tumour cells (EHR2/DNR + ) with a ['25I]iodinated Bolton-Hunter derivative of daunorubicin ([1251]iodomycin) and with [3H]azidopine. […] Anthracyclines are among the most valuable cytostatic agents in clinical use. Their usefulness is, however, limited by the occurrence of tumour cells with the multidrug resistance (MDR) phenotype (Beck, 1987; Bliek & Borst, 1989; Endicott & Ling, 1989; Kaye & Merry, 1985; Moscow & Cowan, 1988). MDR cells have an enhanced amount of a 150- 170 kDa plasma membrane glycoprotein, P-glycoprotein (Pgp) (Kartner et al., 1983 and 1985; Cornwell et al., 1986; Bradley et al., 1988; Beck, 1991a; Roninson, 1991), that may function as a low-specificity transport protein to facilitate the outward transport of cytotoxic agents including the anthracyclines. Thus, increased drug efflux and therefore decreased accumulation is seen in MDR cells not only to the drug for which resistance is developed but also to a wide spectrum of chemically unrelated cytostatics (Bradley et al., 1988; Fojo et al., 1985). […] The aim of this study was to examine these analogs for their ability to com- pete for ligand binding to Pgp and thus service as inhibitors for the outward drug transport system in MDR cells. Anthracycline inter-actions with Pgp were assessed using the specific photolabelling of the protein with [251I]iodomycin, a ['251]iodinated Bolton-Hunter derivative of DNR (Busche et al., 1989a) and with [3H]azidopine ([3H]AZP) which photolabels Pgp in plasma membrane vesicles from EHR2/ DNR + cells (Sehested et al., 1990) as well as in whole cells (Safa et al., 1987; Friche et al., 1990c). […] Material and methods Chemicals Duanorubicin (DNR); AdriamycinR (Doxorubicin/HCl, DOX); 4'-deoxy-4'-iododoxorubicin (DIDOX); and 4- demethoxy-DNR were kindly supplied from Farmitalia, Carlo Erba (Milan, Italy). N,N-dibenzyl-DNR was a gift from Dr Nicholas Bachur, (Baltimore, MD) and N- benzyladriamycin-14-valerate (AD 198) a gift from Professor M. Israel (Memphis, TN). Mitoxantrone was purchased from Lederle (New Jersey, USA), Aclacinomycin A from Lund- beck & Co A/S (Copenhagen, Denmark), OncovinR (Vincristine/HCl, VCR) from Eli Lilly Deutschland GMBH (Giessen, Germany), Cremophor EL from BASF Aktiengesellschaft (Ludwigshafen, Germany), and Tween 80 from the Sigma Chemical Co. (St. Louis, MO). ['251]-Bolton- Hunter reagent (2000 Ci mmol 1), [3H]AZP (42 Ci mmol- ') and non-radioactive AZP were purchased from Amersham International (Amersham, UK). All other chemicals were of analytical grade. Organic solvents were distilled prior to use. Triethylamine was distilled over ninhydrin and anhydrous methanol was stored over molecular sieve (3 A). Tumour cells Cells were either the wild-type Ehrlich ascites tumor line (EHR2) or the corresponding DNR-resistant line (EHR2/ DNR + ) (Dan0, 1971) displaying both the MDR phenotype (Sehested et al., 1990) and as recently shown, decreased Correspondence: E. Friche. Received 22 April 1992; and in revised form 21 September 1992.

[2] = pH 7.45
Source text: as §1

P-glycoprotein [3] = test: [125I]iodomycin photolabelling of Pgp in EHR2/DNR+ cells; format: binding, mice
Source text: as §1

EHR2/DNR+ cells [4] = test: Modulating effect on steady-state DNR accumulation in EHR2/DNR+ cells; format: cell-based, mice; details: equimolar concentrations (5 µM)
Source text: (§2) Br. J. Cancer (1993), 67, 226 231 ? Macmillan Press Ltd., 1993 Effect of anthracycline analogs on photolabelling of p-glycoprotein by I'25 liodomycin and [3Hlazidopine: Relation to lipophilicity and inhibition of daunorubicin transport in multidrug resistant cells E. Frichel*, E.J.F. Demant2, M. Sehested3 & N.I. Nissen' 'Department of Medicine and Hematology, L 4042, Rigshospitalet-University Hospital, 9, Blegdamsvej, DK-2100 Copenhagen; 2Department of Biochemistry C, The Panum Institute, University of Copenhagen, DK-2200 Copenhagen; 3Department of Pathology, Sundby Hospital, DK-2300 Copenhagen, Denmark. […] We photoaffinity labelled P-glycoprotein in daunorubicin (DNR) resistant Ehrlich ascites tumour cells (EHR2/DNR + ) with a ['25I]iodinated Bolton-Hunter derivative of daunorubicin ([1251]iodomycin) and with [3H]azidopine. […] Anthracyclines are among the most valuable cytostatic agents in clinical use. […] Anthracycline inter-actions with Pgp were assessed using the specific photolabelling of the protein with [251I]iodomycin, a ['251]iodinated Bolton-Hunter derivative of DNR (Busche et al., 1989a) and with [3H]azidopine ([3H]AZP) which photolabels Pgp in plasma membrane vesicles from EHR2/ DNR + cells (Sehested et al., 1990) as well as in whole cells (Safa et al., 1987; Friche et al., 1990c). […]

EHR2/DNR+ cells [5] = details: ref Friche et al., cited from earlier work
Pgp [6] = tested on: Pgp; design: method as in Safa et al. (1987); details: ref Safa et al., 1987; cited from earlier work
Pgp [7] = details: read-out: Kd for binding to Pgp, cited from earlier work
EHR2/DNR+ cells [8] = test: Steady-state drug accumulation in EHR2 and EHR2/DNR+ cells; format: cell-based, mice
Source text: as §2, with “use. Their usefulness is, however, limited by the occurrence of tumour cells with the multidrug resistance (MDR) phenotype (Beck, 1987; Bliek & Borst, 1989; Endicott & Ling, 1989; Kaye & Merry, 1985; Moscow & Cowan, 1988). MDR cells have an enhanced amount of a 150- 170 kDa plasma membrane glycoprotein, P-glycoprotein (Pgp) (Kartner et al., 1983 and 1985; Cornwell et al., 1986; Bradley et al., 1988; Beck, 1991a; Roninson, 1991), that may function as a low-specificity transport protein to facilitate the outward transport of cytotoxic agents including the anthracyclines.” for “use.”

[9] = 40 µM drug (100-fold molar excess)
[10] = 10 µM drug (1000-fold molar excess), iodomycin 10 nM, 30 min 37°C
[11] = 5 µM modulator (500-fold molar excess)

SMILES	Per cent inhibition of [3H]AZP photolabelling of Pgp (P-glycoprotein [1]; 10 µM drug) [%]	Per cent inhibition of [3H]AZP photolabelling of Pgp (P-glycoprotein [1]; 20 µM drug) [%]	Per cent inhibition of [3H]AZP photolabelling of Pgp (P-glycoprotein [1]; [9]) [%]	Lipid solubility (O/W), octanol/water partition coefficient [2]	Per cent inhibition of [125I]iodomycin photolabelling of Pgp (P-glycoprotein [3]; [10])	Per cent inhibition of [125I]iodomycin photolabelling of Pgp (P-glycoprotein [3]; 20 µM drug, iodomycin 10 nM) [%]	Per cent inhibition of [125I]iodomycin photolabelling of Pgp (P-glycoprotein [3]; 40 µM drug, iodomycin 10 nM) [%]	other results
CC(=O)[C@]1(O)Cc2c(O)c3c(c(O)c2[C@@H](O[C@H]2C[C@H](N)[C@H](O)[C@H](C)O2)C1)C(=O)c1ccccc1C3=O [4-demethoxy-daunorubicin]	1.5	3.6	19.8	13.08	35.9%	52.2	58.3	
COc1cccc2c1C(=O)c1c(O)c3c(c(O)c1C2=O)C[C@@](O)(C(C)=O)C[C@@H]3OC1CC(N(Cc2ccccc2)Cc2ccccc2)C(O)C(C)O1.Cl (stereo partly drawn) [N,N,-dibenzyl-daunorubicin]	75.2	87.1	90.5	> 200	52.4%	97.3	> 99	Per cent inhibition of [3H]AZP photolabelling of Pgp (P-glycoprotein [1]; 40 µM drug (100-fold molar excess), listed as N,N-dibenzyl-DNR): about 90%; Per cent inhibition of [125I]iodomycin photolabelling of Pgp (P-glycoprotein [3]; 20 µM drug, iodomycin 10 nM, listed as N,N-dibenzyl-DNR): 97%; Effect on accumulation of DNR (EHR2/DNR+ cells [4]): did increase accumulation of DNR the most
CC[C@]1(O)C[C@H]2CN(CCc3c([nH]c4ccccc34)[C@@](C(=O)OC)(c3cc4c(cc3OC)N(C=O)[C@H]3[C@@](O)(C(=O)OC)[C@H](OC(C)=O)[C@]5(CC)C=CCN6CC[C@]43[C@@H]65)C2)C1 [Vincristine]				1.98	95% and 94.3%			Per cent inhibition of [125I]iodomycin photolabelling of Pgp (P-glycoprotein [3]; 1 µM modulator): 53.1%; Per cent inhibition of [125I]iodomycin photolabelling of Pgp (P-glycoprotein [3]; 1 µM modulator, listed as VCR): about 50%; Per cent inhibition of [125I]iodomycin photolabelling of Pgp (P-glycoprotein [3]; [11]): 78.6%; Per cent inhibition of [125I]iodomycin photolabelling of Pgp (P-glycoprotein [3]; 10 µM drug (1000-fold molar excess), iodomycin 10 nM, 30 min 37°C, listed as VCR): almost completely blocked
COc1cccc2c1C(=O)c1c(O)c3c(c(O)c1C2=O)C[C@@](O)(C(=O)CO)C[C@@H]3O[C@H]1C[C@H](N)[C@H](O)[C@H](C)O1 [Doxorubicin]	0	10.5	11.0	1.22	0%	0	16.8	Effect on accumulation of DNR (EHR2/DNR+ cells [5]; 1990a): does not increase accumulation of DNR; Inhibition of [3H]AZP labelling of Pgp (Pgp [6]): 19%; Per cent inhibition of [3H]AZP photolabelling of Pgp (P-glycoprotein [1]; 40 µM drug (100-fold molar excess), listed as DOX): 10-17%; Per cent inhibition of [125I]iodomycin photolabelling of Pgp (P-glycoprotein [3]; 10 µM drug (1000-fold molar excess), iodomycin 10 nM, 30 min 37°C, listed as DOX): did not cause significant inhibition; Per cent inhibition of [125I]iodomycin photolabelling of Pgp (P-glycoprotein [3]; 40 µM drug, iodomycin 10 nM, listed as DOX): 17% and 10-17%
O=C1c2c(O)ccc(O)c2C(=O)c2c(NCCNCCO)ccc(NCCNCCO)c21 [Mitoxantrone]	7.5	15.6	19.5	5.06	42.9%	56.9	58.8	
COc1cccc2c1C(=O)c1c(O)c3c(c(O)c1C2=O)C[C@@](O)(C(=O)CO)C[C@@H]3O[C@H]1C[C@H](N)[C@H](I)[C@H](C)O1 [DIDOX, 4'-deoxy-4'-iododoxorubicin]	0	0	19.7	14.51	20.6%	17.5	22.5	Effect on accumulation of DNR (EHR2/DNR+ cells [5]; 1990b, Arcamone, 1985): did not increase DNR accumulation
CC[C@@]1(O)C[C@H](O[C@H]2C[C@H](N(C)C)[C@H](O[C@H]3C[C@H](O)[C@H](O[C@H]4CCC(=O)[C@H](C)O4)[C@H](C)O3)[C@H](C)O2)c2c(cc3c(c2O)C(=O)c2c(O)cccc2C3=O)[C@H]1C(=O)OC [Aclacinomycin A]	65.3	74.7	85.7		22.6%	52.0	75.3	Effect on accumulation of DNR (EHR2/DNR+ cells [4]): did increase accumulation of DNR the most
COc1cccc2c1C(=O)c1c(O)c3c(c(O)c1C2=O)CC(O)(C(C)=O)CC3OC1CC(NC(=O)CCc2ccc(O)c(I)c2)C(O)C(C)O1 (stereo not drawn) [[125I]iodomycin]								Kd (Pgp [7]; ref Busche et al., 1989b): 25 nM; Reduced steady-state accumulation in EHR2/DNR+ relative to EHR2 (EHR2/DNR+ cells [8]): ~5 fold; Steady-state accumulation (EHR2/DNR+ cells [8]; EHR2/DNR+ cells): 42 fmol 10-6 cells; Steady-state accumulation (EHR2/DNR+ cells [8]; EHR2 cells (wild type)): 207 fmol 10-6 cells
CCOC(=O)C1=C(C)NC(C)=C(C(=O)OCCNC(=O)c2ccc(N=[N+]=[N-])cc2)C1c1ccccc1C(F)(F)F (stereo not drawn) [Azidopine]					67.9%			Kd (Pgp [7]; ref Safa et al., 1987): 1000 nM; Per cent inhibition of [125I]iodomycin photolabelling of Pgp (P-glycoprotein [3]; 1 µM modulator): 6.7%; Per cent inhibition of [125I]iodomycin photolabelling of Pgp (P-glycoprotein [3]; 1 µM modulator, listed as AZP): hardly inhibited; Per cent inhibition of [125I]iodomycin photolabelling of Pgp (P-glycoprotein [3]; [11]): 50.0%; Per cent inhibition of [125I]iodomycin photolabelling of Pgp (P-glycoprotein [3]; 5 µM modulator (500-fold molar excess), listed as AZP): 50%
CCCCC(=O)OCC(=O)[C@]1(O)Cc2c(O)c3c(c(O)c2[C@@H](O[C@H]2C[C@H](NCc4ccccc4)[C@H](O)[C@H](C)O2)C1)C(=O)c1c(OC)cccc1C3=O [AD-198, N-benzyladriamycin-14-valerate]	74.1	81.7	90.9	> 200	85%	95.8	> 99	Per cent inhibition of [3H]AZP photolabelling of Pgp (P-glycoprotein [1]; 40 µM drug (100-fold molar excess), listed as Ad-198): about 90%
